# Target: T1, hROMK (hKir1.1) (Homo sapiens, UniProt P48048)
# T1 construct: expressed in transfected cells
# T1 sequence (P48048 1-391): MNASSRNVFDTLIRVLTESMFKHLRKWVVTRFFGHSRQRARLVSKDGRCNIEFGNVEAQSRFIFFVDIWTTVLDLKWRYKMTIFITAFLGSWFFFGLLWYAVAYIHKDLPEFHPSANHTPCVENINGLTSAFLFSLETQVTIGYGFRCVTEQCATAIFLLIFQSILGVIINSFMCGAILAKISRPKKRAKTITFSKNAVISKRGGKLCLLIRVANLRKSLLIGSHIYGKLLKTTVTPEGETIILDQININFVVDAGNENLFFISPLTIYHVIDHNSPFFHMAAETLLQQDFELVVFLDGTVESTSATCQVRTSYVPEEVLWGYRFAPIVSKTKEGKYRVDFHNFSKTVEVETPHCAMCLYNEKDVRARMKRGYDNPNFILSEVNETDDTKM
# Experiment: Thallium Flux Assay (ROMK channel functional thallium flux, FLIPR-Tetra)
# Assay type: cell-based
# Conditions: HEK293 cells stably expressing hROMK (hKir1.1); 30 min compound incubation
# Outline: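 HEK293 cells stably expressing hKir1.1, loaded with FluxOR dye for 90 min, then preincubated with compound for 30 min at ambient temperature with 0.3 mM ouabain and probenecid. Stimulated with 3 mM thallium/0.3 mM potassium (final); fluorescence read ~10 min. Normalized to 3 μM reference ROMK inhibitor; IC50 from inhibition of flux.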
row,SMILES,IC50
1,"CC1=C(N2C(=O)C3(CC2C)CC2CCC(C3)N2C[C@H](O)c2ccc(-n3cnnn3)nc2)COC1=O (single isomer, unassigned) [Example 135]",50 nM
2,"CC1=C(N2CCC3(CC4CCC(C3)N4C[C@@H](O)c3ccc(-n4cnnn4)nn3)C2=O)COC1=O (stereo partly drawn) [Example 53, (1R,5R)-8-{(2R)-2-hydroxy-2-[6-(1H-tetrazol-1-yl)pyridazin-3-yl]ethyl}-1′-(4-methyl-5-oxo-2,5-dihydrofuran-3-yl)-2′-oxospiro[8-azoniabicyclo[3.2.1]octane-3,3′-pyrrolidine]]",10 nM
3,"CC1=C(N2CCC3(CC4CCC(C3)N4C[C@@H](O)c3ccc(-n4cnnn4)cn3)C2=O)COC1=O (stereo partly drawn) [Example 46, (1R,5R)-8-{(2R)-2-hydroxy-2-[5-(1H-tetrazol-1-yl)pyridin-2-yl]ethyl}-1′-(4-methyl-5-oxo-2,5-dihydrofuran-3-yl)-2′-oxospiro[8-azoniabicyclo[3.2.1]octane-3,3′-pyrrolidine]]",20 nM
4,"COC1CN(C[C@H](O)c2ccc(-n3cnnn3)nc2)CCC12CCN(C1=C(C)C(=O)OC1)C2=O (single isomer, unassigned) [Example 176]",90 nM
5,"COCC1=C(N2CCC3(CCN(C[C@H](O)c4ccc(-n5cnnn5)nn4)CC3)C2=O)COC1=O [Example 191, 8-{(2S)-2-hydroxy-2-[6-(1H-tetrazol-1-yl)pyridazin-3-yl]ethyl}-2-[4-(methoxymethyl)-5-oxo-2,5-dihydrofuran-3-yl]-2,8-diazaspiro[4.5]decan-1-one]",70 nM
6,"CC1=C(N2CCC3(CCN(C[C@@H](O)c4cccc(-n5cnnn5)n4)CC3)C2=O)COC1=O [Example 74, 8-{(2R)-2-hydroxy-2-[6-(1H-tetrazol-1-yl)pyridin-2-yl]ethyl}-2-(4-methyl-5-oxo-2,5-dihydrofuran-3-yl)-1-oxo-2-aza-8-azoniaspiro[4.5]decane]",90 nM
7,"CC1=C(N2C(=O)C3(CC2C)CC2CCC(C3)N2C[C@@H](O)c2ccc(-n3cnnn3)nc2)COC1=O (single isomer, unassigned) [Example 134]",60 nM
8,"CC1=C(N2C=CC3(CCN(CCc4cnc(-n5cnnn5)cn4)CC3)C2=O)COC1=O [Example 251, 2-(4-methyl-5-oxo-2,5-dihydrofuran-3-yl)-1-oxo-8-{2-[5-(1H-tetrazol-1-yl)pyrazin-2-yl]ethyl}-2-aza-8-azoniaspiro[4.5]dec-3-ene]",50 nM
9,"CC1CC2(CC3CCC(C2)N3C[C@@H](O)c2ccc(-n3cnnn3)nc2)C(=O)N1C1=CC(=O)OC1 (single isomer, unassigned) [Example 101]",6 nM
10,"CC1=C(N2CCC3(CCN(C[C@H](O)c4ccc(-n5cnnn5)nc4C)CC3F)C2=O)COC1=O (single isomer, unassigned) [Example 117]",50 nM
11,"O=C1C=C(N2C(=O)C3(CCN(C[C@H](O)c4ccc(-n5cnnn5)nn4)CC3)CC2C2CC2)CO1 (mixture of isomers) [Example 210, 3-cyclopropyl-8-{(2S)-2-hydroxy-2-[6-(1H-tetrazol-1-yl)pyridazin-3-yl]ethyl}-2-(5-oxo-2,5-dihydrofuran-3-yl)-2,8-diazaspiro[4.5]decan-1-one]",70 nM
12,"CC1OC(=O)C=C1N1CCC2(CCN(C[C@H](O)c3ccc(-n4cnnn4)nc3)CC2)C1=O (mixture of isomers) [Example 227, 8-((R)-2-(6-(1H-tetrazol-1-yl)pyridin-3-yl)-2-hydroxyethyl)-2-(2-methyl-5-oxo-2,5-dihydrofuran-3-yl)-2,8-diazaspiro[4.5]decan-1-one]",180 nM
13,"CO[C@H](CN1CCC2(CC1)C[C@@H](C)N(C1=CC(=O)OC1)C2=O)c1cnc(-n2cnnn2)cn1 (single isomer, unassigned) [Example 286]",60 nM
14,"CC1=C(N2CCC3(CCN(C[C@H](O)c4ccc(-n5cnnn5)nn4)CC3F)C2=O)COC1=O (single isomer, unassigned) [Example 183]",80 nM
15,"CC1CC2(CCN(C(C)(C)C(O)c3cnc(-n4cnnn4)cn3)CC2)C(=O)N1C1=CC(=O)OC1 (single isomer, unassigned) [Example 304, 8-(1-(5-(1H-tetrazol-1-yl)pyrazin-2-yl)-1-hydroxy-2-methylpropan-2-yl)-3-methyl-2-(5-oxo-2,5-dihydrofuran-3-yl)-2,8-diazaspiro[4.5]decan-1-one]",910 nM
16,"CC1OC(=O)C=C1N1C(=O)C2(CCN(C[C@H](O)c3ccc(-n4cnnn4)nc3)CC2)C[C@H]1C (single isomer, unassigned) [Example 231]",1530 nM
17,"COC1CN(C[C@@H](O)c2ccc(-n3cnnn3)nc2)CCC12CCN(C1=C(C)C(=O)OC1)C2=O (single isomer, unassigned) [Example 171]",60 nM
18,"CC1=C(N2CCC3(CCN(C[C@@H](F)c4cnc(-n5cnnn5)cn4)CC3)C2=O)COC1=O [Example 277, 8-{(2R)-2-fluoro-2-[5-(1H-tetrazol-1-yl)pyrazin-2-yl]ethyl}-2-(4-methyl-5-oxo-2,5-dihydrofuran-3-yl)-1-oxo-2-aza-8-azoniaspiro[4.5]decane]",80 nM
19,"CC1=C(N2CCC3(CCN(C[C@H](O)c4ccc(-n5cnnn5)nc4C)CC3O)C2=O)COC1=O (single isomer, unassigned) [Example 202]",60 nM
20,"CC1=C(N2CC[C@@]3(CCN(C[C@H](O)c4cnc(-n5cnnn5)cn4)CC3F)C2=O)COC1=O (mixture of isomers) [Example 225, 6-fluoro-8-{(2S)-2-hydroxy-2-[5-(1H-tetrazol-1-yl)pyrazin-2-yl]ethyl}-2-(4-methyl-5-oxo-2,5-dihydrofuran-3-yl)-1-oxo-2-aza-8-azoniaspiro[4.5]decane]",150 nM

# Continued, values first:
row,IC50,SMILES
1,30 nM,"CC1=CN(C2=C(C)C(=O)OC2)C(=O)C12CCN(CCc1nnc(-n3cnnn3)cc1C)CC2 [Example 256, 4-methyl-2-(4-methyl-5-oxo-2,5-dihydrofuran-3-yl)-8-{2-[4-methyl-6-(1H-tetrazol-1-yl)pyridazin-3-yl]ethyl}-1-oxo-2-aza-8-azoniaspiro[4.5]dec-3-ene]"
2,20 nM,"CC1=C(N2CCC3(CCN(C(CO)Cc4ccc(-n5cnnn5)nc4)CC3)C2=O)COC1=O (single isomer, unassigned) [Example 295]"
3,30 nM,"O=C1C=C(N2C(=O)C3(CCN(C[C@H](O)c4ccc(-n5cnnn5)nc4)CC3)CC2C2CC2)CO1 (mixture of isomers) [Example 214, 3-cyclopropyl-8-{(2R)-2-hydroxy-2-[6-(1H-tetrazol-1-yl)pyridin-3-yl]ethyl}-2-(5-oxo-2,5-dihydrofuran-3-yl)-2,8-diazaspiro[4.5]decan-1-one]"
4,40 nM,"CC1=C(N2CCC3(CCN(C[C@@H](O)c4cccc(-n5cnnn5)c4)CC3)C2=O)COC1=O [Example 62, 8-{(2S)-2-hydroxy-2-[3-(1H-tetrazol-1-yl)phenyl]ethyl}-2-(4-methyl-5-oxo-2,5-dihydrofuran-3-yl)-1-oxo-2-aza-8-azoniaspiro[4.5]decane]"
5,10 nM,"CC1=C(N2CCC3(CCN(C[C@@H](O)c4ccc(-n5cnnn5)nc4)CC3F)C2=O)COC1=O (single isomer, unassigned) [Example 195]"
6,4 nM,"CC1=C(N2CCC3(CCN([C@H](C)Cc4ccc(-n5cnnn5)nn4)CC3)C2=O)COC1=O (single isomer, unassigned) [Example 294]"
7,20 nM,"CC1=C(N2CCC3(CCN(C[C@@H](O)c4ccc(-n5cnnn5)nn4)CC3)C2=O)COC1=O [Example 33, 8-{(2R)-2-hydroxy-2-[6-(1H-tetrazol-1-yl)pyridazin-3-yl]ethyl}-2-(4-methyl-5-oxo-2,5-dihydrofuran-3-yl)-1-oxo-2-aza-8-azoniaspiro[4.5]decane]"
8,40 nM,"CC1=C(N2C=CC3(CCN(C[C@@H](O)c4nnc(-n5cnnn5)cc4C)CC3)C2=O)COC1=O [Example 153, 8-{(2R)-2-hydroxy-2-[4-methyl-6-(1H-tetrazol-1-yl)pyridazin-3-yl]ethyl}-2-(4-methyl-5-oxo-2,5-dihydrofuran-3-yl)-1-oxo-2-aza-8-azoniaspiro[4.5]dec-3-ene]"
9,10 nM,"COc1cc(-n2cnnn2)ccc1[C@@H](O)CN1CCC2(CC1)CCN(C1=CC(=O)OC1)C2=O [Example 15, 8-{(2R)-2-hydroxy-2-[2-methoxy-4-(1H-tetrazol-1-yl)phenyl]ethyl}-1-oxo-2-(5-oxo-2,5-dihydrofuran-3-yl)-2-aza-8-azoniaspiro[4.5]decane]"
10,20 nM,"COc1nc(-n2cnnn2)ccc1[C@@H](O)CN1CCC2(CC1)CCN(C1=C(C)C(=O)OC1)C2=O [Example 149, 8-{(2R)-2-hydroxy-2-[2-methoxy-6-(1H-tetrazol-1-yl)pyridin-3-yl]ethyl}-2-(4-methyl-5-oxo-2,5-dihydrofuran-3-yl)-2,8-diazaspiro[4.5]decan-1-one]"
11,20 nM,"CC1=C(N2CCC3(CCN(C[C@@H](O)c4cc(C)c(-n5cnnn5)nn4)CC3)C2=O)COC1=O [Example 127, 8-{(2R)-2-hydroxy-2-[5-methyl-6-(1H-tetrazol-1-yl)pyridazin-3-yl]ethyl}-2-(4-methyl-5-oxo-2,5-dihydrofuran-3-yl)-1-oxo-2-aza-8-azoniaspiro[4.5]decane]"
12,10 nM,"CC1=C(N2CCC3(CCN(CCc4ccc(-n5cnnn5)nn4)CC3F)C2=O)COC1=O (single isomer, unassigned) [Example 266, 6-fluoro-2-(4-methyl-5-oxo-2,5-dihydrofuran-3-yl)-8-{2-[6-(1H-tetrazol-1-yl)pyridazin-3-yl]ethyl}-2,8-diazaspiro[4.5]decan-1-one]"

# From US9765074B2, “Inhibitors of the renal outer medullary potassium channel” (Merck Sharp & Dohme Corp., priority 2013, dated 2017)
